Measured values taken from patent publication US12233071B2, “Medicament for treating cough” (NIPPON CHEMIPHAR CO., LTD, priority 2018, dated 2025).
“Also recorded” adds a separate entry of the source.

Experiments:
[1] = system: citric acid (0.1 M)-induced cough; assay: Citric acid-induced cough in airway inflammation (LPS) model mice, oral administration; assay type: in vivo, ICR strain mice; conditions: oral 0.3 mg/kg 1 h before 0.1 M citric acid stimulation
Experimental: Model mice with chronic cough caused by airway inflammation (referred to as “airway inflammation model mice”) were produced.
The airway inflammation model mice were produced while the mice were nasally instilled with lipopolysaccaride (LPS:1 μg/100 μL) daily for 3 days under diethyl ether inhalation anesthesia.
In addition, experiments for evaluating medicament efficacy on the airway inflammation model mice were conducted at 24 h after the final LPS administration.
Cough reflux is induced by inhalation of (in the case of mice, 0.1 M or 0.25 M and in the case of guinea pigs, 0.25 M or 0.5 M) citric acid by mice or guinea pigs under non-anesthesia conditions. […]
(§1) The respiration and the cough reflux are measured in accordance with the body-plethysmograph method. […] The respiration is recorded in a PC (IdeaPad 300: Lenovo) for measurement by measuring, as a change in volume of the cylinder, the chest movement of each experimental animal in the cylinder by using a PowerLab (ML826 PowerLab 2/26: AD Instruments) via a respiratory flow meter. […] This change is recorded using the respiratory flow meter. This frequency is recorded to measure the number of coughs. The data is analyzed by LabChart version 8 (ADInstruments). In addition, immediately before inhalation of citric acid, the respiratory frequency per 15 sec is measured. […]

[2] = system: citric acid (0.25 M)-induced cough; assay: Citric acid-induced cough in mice, local application by inhalation using a nebulizer; assay type: in vivo, ICR strain mice; conditions: inhalation of 10, 30 or 100 μg/mL by nebulizer, 0.25 M citric acid after 4 min
From the text: (§2) Cough reflux is induced by inhalation of (in the case of mice, 0.1 M or 0.25 M and in the case of guinea pigs, 0.25 M or 0.5 M) citric acid by mice or guinea pigs under non-anesthesia conditions. The citric acid is made aerosol by using an ultrasonic nebulizer (NE-U17: OMRON Corporation), and is inhaled while the air is supplied with an artificial respirator (SN-480-7: Shinano Seisakusho). The citric acid aerosol has an average particle size of from 1 to 8 μm, and the artificial respirator is used to supply the air at a one-time ventilation volume of 6 mL, a frequency of 30 times per min, and an inhalation period of 3 min.
as §1

[3] = system: citric acid (0.5 M)-induced cough; assay: Citric acid-induced cough reflux in pretreatment guinea pigs, oral administration; assay type: in vivo, Hartly strain guinea pigs; conditions: guinea pigs; for inhibition of citric acid-induced cough (number of coughs): oral (compound A 1, 3, 10 mg/kg; compound B 1, 3, 10, 30 mg/kg); for inhibition of citric acid-induced cough (number of coughs) / dose at which a significant inhibitory action on citric acid-induced cough was exhibited: 0.5 M citric acid 1 h after administration; for dose at which a significant inhibitory action on citric acid-induced cough was exhibited: oral
From the text: as §2
The respiration and the cough reflux are measured in accordance with the body-plethysmograph method. The plethysmograph used includes: a plastic-made, cylindrical cylinder part in which the trunk of each mouse or guinea pig is housed; and a cap part that covers the head portion (any plastic-made cylinder is allowed as long as each experimental animal can be put in; in the case of the mouse, for instance, the part with a diameter of 4 cm and a length of 7 cm was used). An exhaust hole is created at an upper cylinder portion so as to be able to connect, via a silicon tube, to a respiratory flow meter (TP-602T: NIHON KOHDEN CORPORATION). To tightly seal the inside of the cylinder, a rubber or celluloid collar is attached to the neck of each animal, and the cap covering the whole head is used to fix them. The head-attached cap part has an exhaust port and an inhalation port created for inhalation of a cough-inducing substance. In addition, a screw-type lid is attached to a tail portion of the cylinder so as to move in or out each experimental animal. Each mouse is put in the cylinder, allowed to play for at least 30 min, adapted to an experimental environment, and then subjected to the experiment. The respiration is recorded in a PC (IdeaPad 300: Lenovo) for measurement by measuring, as a change in volume of the cylinder, the chest movement of each experimental animal in the cylinder by using a PowerLab (ML826 PowerLab 2/26: AD Instruments) via a respiratory flow meter. When a cough is induced, the chest of the experimental animal is moved vigorously, which causes an instantaneous large volume change in the cylinder. This change is recorded using the respiratory flow meter. This frequency is recorded to measure the number of coughs. The data is analyzed by LabChart version 8 (ADInstruments). In addition, immediately before inhalation of citric acid, the respiratory frequency per 15 sec is measured.
In this way, the effects were investigated.
At that time, Hartly strain guinea pigs were used as the guinea pigs, and 0.5 M citric acid was used as the citric acid.
In this way, the effects were investigated. Here, 0.5 M citric acid was used as the pretreated citric acid.

[4] = system: citric acid (0.25 M)-induced cough; assay: Citric acid-induced cough in OVA-sensitized cough model guinea pigs, oral administration; assay type: in vivo, Hartly strain guinea pigs; conditions: oral 1 mg/kg 1 h before citric acid stimulation; for cough response increased due to airway inflammation: OVA-sensitized cough group guinea pigs
From the text: When OVA, a foreign antigen, is inhaled, airway inflammation accompanied by eosinophil infiltration is induced. Consequently, OVA-sensitized guinea pigs present symptoms of allergic cough and atopic cough. Thus, the guinea pigs have been widely used as a pathological model (antigen-induced airway inflammation model animals) reflecting human clinical conditions. Here, in the Examples of the present application, whether a compound(s) of the present application elicited cough inhibitory action against the pathological model was evaluated.
The OVA-sensitized cough model guinea pigs were produced specifically by the following procedure.
Note that in the following procedure, Ovalbumin or mepyramine maleate is dissolved in saline and then used.
The number of citric acid-induced coughs is measured. Then, a mixture of 200 μL of 0.05% OVA (Ovalbumin) and 100 μL of Imject Alum (prepared by suspending aluminum hydroxide and magnesium hydroxide, each at a concentration of 40 mg/mL, in water and by adding an inactivating stabilizer thereto) per guinea pig is administered intraperitoneally (i.p.).
After the intraperitoneal administration, 0.5% OVA is given for 5 min by inhalation at days 7, 14, 21, and 28.
Note that at 30 min before the inhalation, mepyramine maleate (10 mg/kg) is given i.p. to prevent a shock symptom.
At Day 35, 0.5% ovalbumin is given for 60 min by inhalation. Note that at 30 min before the inhalation, mepyramine maleate (10 mg/kg) is given i.p. to prevent a shock symptom.
The next day of the final 0.5% ovalbumin challenge (day 35), the test is conducted.
OVA-sensitized cough model guinea pigs were used and stimulated with 0.25 M citric acid by the same procedure as of Example 9 to induce cough reflux. For guinea pigs used in this Example, Hartly strain guinea pigs were used for any of the below-described pretreatment guinea pigs, sham group guinea pigs, and OVA-sensitized cough group guinea pigs.
OVA-sensitized cough model guinea pigs were used and stimulated with 0.25 M citric acid by the same procedure as of Example 10 to induce cough reflux. For guinea pigs used in this Example, Hartly strain guinea pigs were used for any of the below-described pretreatment guinea pigs, sham group guinea pigs, and OVA-sensitized cough group guinea pigs.

[5] = system: ACh-induced contraction of bronchial smooth muscle; assay: Contraction of tracheobronchial smooth muscles excised from guinea pig (isometric tension, organ bath)
Experimental: An animal was sacrificed by phlebotomy while the ventral aorta was dissected under urethane (2 g/kg, i.p.) anesthesia. Then, a left major bronchial tissue was excised. After a connective tissue and blood vessels were removed, each ring specimen with a width of about 3 mm was prepared and suspended in an organ bath. Then, the isometric tension was measured while the resting tension was set to 1.0 g. After the baseline tension was stabilized, whether each ring specimen was subject to an acetylcholine (ACh: 10^−3 M)-mediated contraction reaction was verified. Then, the following mater was investigated. […] Next, a tracheal or left major bronchial tissue was excised. After a connective tissue and blood vessels were removed, each ring specimen with a width of about 3 mm was prepared and suspended in an organ bath. Then, the isometric tension was measured while the resting tension was set to 1.0 g. After the baseline tension was stabilized, whether each ring specimen was subject to an acetylcholine (ACh: 10^−3 M)-mediated contraction reaction was verified. Then, the following mater was investigated. […] The specimen was likewise treated with just 0.1% DMSO.

[6] = system: citric acid (0.25 M)-induced cough; assay: Citric acid-induced cough reflux in pretreatment mice, oral administration; assay type: in vivo, ICR strain mice

| SMILES | cough response increased due to airway inflammation ([1]; airway inflammation group mice) | change in the number of coughs in sham group mice ([1]; sham group mice (saline instead of LPS), sodium salt, 0.3 mg/kg) | antitussive effect by local application [2] | inhibition of citric acid-induced cough (number of coughs) [3] | dose at which a significant inhibitory action on citric acid-induced cough was exhibited [3] | cough response increased due to airway inflammation [4] | change in the number of coughs in sham group guinea pigs [4] | effect on baseline tension of bronchial smooth muscle ([5]; 10^−5 M, solvent water) | effect on 10^−5 M Ach-induced contraction reaction of bronchial smooth muscle ([5]; 10^−5 M, solvent water, about 50% contraction of the maximum contraction) | medicament efficacy on citric acid-induced cough at 0.3 mg/kg ([6]; oral 0.3 mg/kg, examination of Example 3) | cough inhibition rate, compound A versus the same dose of dihydrocodeine ([6]; oral 10 mg/kg, 0.25 M citric acid 1 h after administration) | inhibition of citric acid-induced cough (number of coughs) ([6]; oral 0.3, 1, 3 or 10 mg/kg, citric acid stimulation 1 h after administration) | dose at which a significant inhibitory action on citric acid-induced cough was exhibited ([6]; oral, citric acid stimulation 1 h after administration) | medicament efficacy on citric acid-induced cough at 1 mg/kg ([3]; oral 1 mg/kg, investigation of Example 10 (FIG. 10)) | effect on ACh-induced contraction of bronchial smooth muscle ([5]; 10^−6 M in DMSO at final 0.1%, 10^−5 M ACh) |
| --- | --- | --- | --- | --- | --- | --- | --- | --- | --- | --- | --- | --- | --- | --- | --- |
| O=C1CC(=O)N(c2cccc(-c3nnn[nH]3)c2)c2ccc3ccccc3c2N1.[Na] [compound A, 5-[3-(1H-tetrazol-5-yl)phenyl]-1H-naphtho[1,2-b][1,4]diazepin-2,4(3H,5H)-dione sodium salt] | inhibited completely | a change in the number of coughs was unobserved; also recorded: did not elicit any significant medicament efficacy | elicited an antitussive effect, in a dose-dependent manner, more strongly and more rapidly using a lower dose than the case of oral administration | inhibited citric acid-induced cough in a dose-dependent manner | ≥ 1 mg/kg | inhibited completely | a change in the number of coughs was unobserved | did not affect | did not affect | did not elicit any significant medicament efficacy | comparable | inhibited citric acid-induced cough in a dose-dependent manner | ≥ 1 mg/kg |  |  |
| O=C1CC(=O)N(c2ccc(NC(=O)c3ccccc3I)cc2)c2ccc3ccccc3c2N1 [compound B, 5-[4-(2-iodobenzoylamino)phenyl]-1H-naphtho[1,2-b][1,4]diazepin-2,4(3H,5H)-dione] |  |  |  | inhibited citric acid-induced cough in a dose-dependent manner | ≥ 1 mg/kg | inhibited completely | a change in the number of coughs was unobserved |  |  |  |  |  |  | does not elicit any significant medicament efficacy | Neither 0.1% DMSO itself, which was a solvent, nor compound B (at 10^−6 M) affected the ACh-induced contraction of bronchial smooth muscle |
